Data reported in ChEMBL document CHEMBL6083181, “Advances in SHP2 tunnel allosteric inhibitors and bifunctional molecules” (Eur J Med Chem, 2024).
Values belong to the compound of their own block, whether it stands above or below them.

Experiments:
KYSE-520 cell line = assay: Antiproliferative activity against human KYSE520 cells assessed as reduction in cell viability by WST-8 assay
[1] = Oral bioavailability in Sprague-Dawley rat at 10 mg/kg by LC-MS analysis; type: ADME, organism-based; conditions: in vivo
[2] = Oral bioavailability in human; type: ADME, organism-based; conditions: in vivo
[3] = biological target: T1, Tyrosine-protein phosphatase non-receptor type 11 (Homo sapiens, UniProt Q06124); assay: Inhibition of human SHP2
T1 sequence (Q06124 whole entry): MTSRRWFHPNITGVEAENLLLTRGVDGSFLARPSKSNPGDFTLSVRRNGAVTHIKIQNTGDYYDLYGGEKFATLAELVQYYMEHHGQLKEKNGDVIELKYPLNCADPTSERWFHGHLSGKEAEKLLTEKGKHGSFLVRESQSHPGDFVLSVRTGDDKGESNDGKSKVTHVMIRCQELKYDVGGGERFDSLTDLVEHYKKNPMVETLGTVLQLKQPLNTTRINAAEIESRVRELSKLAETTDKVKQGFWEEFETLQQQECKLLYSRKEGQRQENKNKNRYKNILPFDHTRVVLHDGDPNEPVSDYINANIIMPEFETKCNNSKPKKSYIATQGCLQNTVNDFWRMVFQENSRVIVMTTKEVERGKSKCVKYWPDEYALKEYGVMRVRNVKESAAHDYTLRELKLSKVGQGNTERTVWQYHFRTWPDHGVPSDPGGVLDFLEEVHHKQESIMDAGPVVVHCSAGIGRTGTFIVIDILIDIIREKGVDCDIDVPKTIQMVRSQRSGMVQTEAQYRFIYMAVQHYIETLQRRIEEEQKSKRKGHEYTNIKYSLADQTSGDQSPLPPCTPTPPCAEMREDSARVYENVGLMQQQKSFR

bioavailability [1]: 42.5%
Structure (SMILES): CC1(N)CCN(c2cnc3c(Sc4ccncc4Cl)n[nH]c3n2)CC1
IC50 (KYSE-520 cell line): 5.73 µM

bioavailability [2]: 46%
Structure (SMILES): CC1(N)CCN(c2cnc(-c3cccc(Cl)c3Cl)c(N)n2)CC1

IC50 [3]: < 0.01 µM
Structure (SMILES): C[C@H]1OCC2(CCN(c3cnc(Sc4ccnc(NC(=O)CCCCCCNC(=O)c5cccnc5)c4Cl)c(N)n3)CC2)[C@H]1N
